# “Also recorded” adds a separate entry of the source. Like-named read-outs stand apart in the source and are kept apart here.
# How the values were obtained:
# [1] = test system: B. subtilis ATCC-6633; experiment: Antibacterial activity, MIC by double-microdilution; type: cell-based
# Method: (§1) Comparative antibacterial activities were determined in two representative strains of Gram-negative (E. coli R477-100) and Gram-positive (B. subtilis ATCC-6633) bacteria, by measuring the MIC values using the double-microdilution method according to the National Committee for Clinical Laboratory Standards (NCCLS) (NCCLS. National Committee for Clinical Laboratory Standards, Performance standards for antimicrobial susceptibility testing. Fifth information supplement: Approved Standard M100-S5; Villanova, Pa.: NCCLS, 1994.).
# (§2) In all biological tests, all AGs were in their sulfate salt forms, and the concentrations refer to the free amine form of each AG. The eukaryotic and prokaryotic half-maximal-inhibition values (IC50^Euk and IC50^Pro) were quantified in coupled transcription/translation assays by using active luciferase detection as previously described. Minimal inhibitory concentration (MIC) values were determined by using the double-microdilution method.
# [2] = test system: cystic fibrosis G542X nonsense mutation; experiment: Cell-free nonsense mutation suppression dose-response assay, firefly/renilla; type: biochemical, rabbit; conditions: 0-50 μM, FIGS. 4-7
# Method: (§3) The plasmids were transcribed in vitro and translated using rabbit reticulocytes (TNT mix) and then tested for the expression levels of the firefly and renilla luciferases.
# (§4) WT plasmids expressed both firefly and renilla luciferases while mutant plasmids expressed only the renilla luciferase due to the stop codon found in the inserted sequence. The readthrough assays were conducted for the tested compounds and the controls by adding the compounds to the in vitro transcription/translation reaction mixture. In case the compounds exerted suppression of the premature nonsense/stop codon mutation, the firefly luciferase was expressed and a fold-change in its expression was observed.
# Readthrough activity of Cystic Fibrosis (CF) mutation G542X was tested using the compounds presented in Table 1, and the mutation suppression was calculated based on firefly/renilla expression ratio values, and normalized with respect to the expression level of the WT and the control sample (no tested compound).
# [3] = test system: Rett syndrome R168X, R270X and R294X nonsense mutations; experiment: Cell-free nonsense mutation suppression assay, firefly/renilla; type: biochemical, rabbit; conditions: 5 μM, FIGS. 8A-C
# Method: as §3, §4
# FIGS. 8A-C present the results of Rett syndrome R168X (FIG. 8A), R270X (FIG. 8B) and R294X (FIG. 8C) nonsense mutations suppression cell-free assays conducted for six exemplary compounds according to embodiments of the present invention, NB144, NB145, NB146, NB150, NB151 and NB152, at a concentration of 5 μM. As shown therein, when compared with the control (non-treated cell extracts), the wild type cell extracts are unaffected (approx. 100%); however, in all three Rett syndrome mutation models there is a significant impact of the different treatments on the readthrough activity (>>>100%).
# [4] = test system: E. coli R477-100; experiment: Antibacterial activity, MIC by double-microdilution; type: cell-based; conditions: for MIC: Escherichia coli, R477100, read-out: Antibacterial Activity MIC E. Coli R 477/100
# Method: as §1, §2
# [5] = test system: nonsense constructs R3X and R245X (USH1), Q70X (HS), G542X (CF); experiment: Dual luciferase in vitro readthrough assay, p2Luc plasmids, TNT Reticulocyte Lysate; type: biochemical; conditions: for in vitro stop codon suppression (readthrough) activity compared with Compound 1: R3X nonsense mutation construct (USH1), FIG. 10
# Source text: DNA fragments derived from PCDH15, CFTR, and IDUA cDNAs, including the tested nonsense mutation or the corresponding wild type (wt) codon, and four to six upstream and downstream flanking codons were created by annealing the following pairs of complementary oligonucleotides:
# Fragments were inserted in frame into the polylinker of the p2Luc plasmid between either BamHI and SacI (p.R3X and p.R245X) or SalI and SacI (all the rest) restriction sites. For the in vitro readthrough assays, the obtained plasmids, with addition of the tested aminoglycosides were transcribed and translated using the TNT Reticulocyte Lysate Quick Coupled Transcription/Translation System. Luciferase activity was determined after 90 minutes of incubation at 30° C., using the Dual Luciferase Reporter Assay System (Promega™).
# Activity was tested using a collection of dual-luciferase reporter plasmids, containing different sequence contests around premature stop codons derived from the PCDH15, CFTR, and IDUA genes that underline USH1, CF, and MPS I-H, respectively. The exemplified nonsense reporters were R3X and R245X for USH1, G542X for CF, and Q70X for MPS I-H.
# [6] = test system: prokaryotic ribosome (E. coli S30 extract); experiment: Prokaryotic in vitro translation inhibition, coupled transcription/translation, E. coli S30 extract, pBESTluc; type: biochemical; conditions: from IC50^Pro and MIC values of Tables 4 and 6
# Method: (§5) Prokaryotic in vitro translation inhibition by the different aminoglycosides was quantified in coupled transcription/translation assays by using E. coli S30 extract for circular DNA with the pBESTluc plasmid (Promega), according to the manufacturer's protocol. Translation reactions (25 μL) that contained variable concentrations of the tested aminoglycoside were incubated at 37° C. for 60 minutes, cooled on ice for 5 minutes, and diluted with a dilution reagent (tris-phosphate buffer (25 mM, pH 7.8), DTT (2 mM), 1,2-diaminocyclohexanetetraacetate (2 mM), glycerol (10%), Triton X-100 (1%) and BSA (1 mg mL-1)) into 96-well plates. Eukaryotic in vitro translation inhibition was quantified by use of TNT® T7 Quick Coupled Transcription/Translation System with a luciferase T7 control DNA plasmid (Promega), according to the manufacturer protocol. Translation reactions (25 μL) containing variable concentrations of the tested aminoglycoside were incubated at 30° C. for 60 minutes, cooled on ice for 5 minutes, diluted with the dilution reagent and transferred into 96-well plates. In both prokaryotic and eukaryotic systems the luminescence was measured immediately after the addition of the Luciferase Assay Reagent (50 μL; Promega), and the light emission was recorded with a FLx800 Fluorescence Microplate Reader (Biotek). The half-maximal inhibition concentration (IC50) values were obtained from fitting concentration-response curves to the data of at least two independent experiments by using Grafit 5 software.
# as §2
# [7] = test system: premature termination codon (PTC); experiment: Comparative in-vitro PTC suppression activity assays (Example 6); type: biochemical
# [8] = test system: eukaryotic cytoplasmic ribosome; experiment: Eukaryotic in vitro translation inhibition, TNT T7 Quick Coupled Transcription/Translation System, luciferase; type: biochemical; conditions: NB156 vs NB74, NB157 vs NB124
# Method: as §5, with “Translation reactions (25 μL) containing variable concentrations of the tested aminoglycoside were incubated at 30° C. for 60 minutes, cooled on ice for 5 minutes, diluted with the dilution reagent and transferred into 96-well plates.” left out, “The half-maximal inhibition concentration (IC50) values were obtained from fitting concentration-response curves to the data of at least two independent experiments by using Grafit 5 software.” left out
# In all biological tests, all AGs were in their sulfate salt forms, and the concentrations refer to the free amine form of each AG. […] Minimal inhibitory concentration (MIC) values were determined by using the double-microdilution method.
# [9] = Bacillus subtilis, ATCC6633, Table 4, read-out: Antibacterial Activity MIC B. Subtilis ATCC6633
# [10] = Bacillus subtilis, ATCC6633, Table 6, read-out: Antibacterial activity MIC B. subtilis ATCC6633
# [11] = all mutations tested: R3X, R245X, Q70X, G542X, FIGS. 11A-D
compound,measurement,setting,value
"CC(O)C1O[C@H](O[C@@H]2C(N)C[C@@H](N)C(O)C2O[C@@H]2O[C@H]([C@H](C)N)C(O)C2O)C(N)C(O)[C@@H]1O (single isomer, unassigned) [NB124, reference compound]",MIC,[1]; [9],156 µM
CC(C)CN[C@@H]1CC(N)[C@@H](O[C@H]2OC([C@@H](C)O)[C@@H](O)C(O)C2N)C(O)C1O (stereo in doubt) [NB144],"G542X mutation suppression (readthrough) activity, dose-response",[2],notable dose-dependent readthrough activity
C[C@@H](O)C1O[C@H](O[C@@H]2C(N)C[C@@H](NCc3ccccc3)C(O)C2O)C(N)C(O)[C@@H]1O (stereo in doubt) [NB145],"G542X mutation suppression (readthrough) activity, dose-response",[2],notable dose-dependent readthrough activity
CCCN[C@@H]1CC(N)[C@@H](O[C@H]2OC([C@@H](C)O)[C@@H](O)C(O)C2N)C(O)C1O (stereo in doubt) [NB146],readthrough activity compared within the series,[3],better activity compared to NB144 and NB145
same,"G542X mutation suppression (readthrough) activity, dose-response",[2],"clearly dose-dependent for all three compounds, and particularly for NB146; also recorded: notable dose-dependent readthrough activity"
C[C@@H](O)C1O[C@H](O[C@@H]2C(N)C[C@@H](NC(=N)N)C(O)[C@H]2O)C(N)C(O)[C@@H]1O (stereo in doubt) [NB150],"G542X mutation suppression (readthrough) activity, dose-response",[2],notable dose-dependent readthrough activity
C[C@@H](O)C1O[C@H](O[C@@H]2C(N)C[C@@H](N)C(O)C2O[C@@H]2O[C@H](CNC(=N)N)C(O)C2O)C(N)C(O)[C@@H]1O (stereo in doubt) [NB151],"G542X mutation suppression (readthrough) activity, dose-response",[2],notable dose-dependent readthrough activity
C[C@@H](O)C1O[C@H](O[C@@H]2C(N)C[C@@H](NC(=O)C(O)CCN)C(O)C2O[C@@H]2O[C@H](CNC(=N)N)C(O)C2O)C(N)C(O)[C@@H]1O (stereo in doubt) [NB152],readthrough activity compared within the series,[3],higher activity compared to NB150 and NB151
same,"G542X mutation suppression (readthrough) activity, dose-response",[2],notable dose-dependent readthrough activity
"NC[C@H]1O[C@@H](OC2C(O)[C@H](N)CC(N)[C@H]2O[C@H]2OC(CO)[C@@H](O)C(O)C2N)C(O)C1O (stereo partly drawn) [NB30, reference compound]",MIC,[1]; [10],100 µg/mL
same,MIC,[4],790 µg/mL
"C[C@H](N)[C@H]1O[C@@H](OC2C(O)[C@H](N)CC(N)[C@H]2O[C@H]2OC(CO)[C@@H](O)C(O)C2N)C(O)C1O (stereo partly drawn) [NB118, reference compound]",MIC,[1]; [10],83 µg/mL
same,MIC,[4],2660 µg/mL
"N[C@H]1[C@@H](O[C@H]2[C@H](O)[C@@H](O)[C@H](N)C[C@@H]2N)O[C@H]([C@H](O)CO)[C@@H](O)[C@@H]1O [NB153, (2R, 3S, 4R, 5R, 6S)-5-amino-6-(((1R, 2R, 3S, 4R, 6S)-4,6-diamino-2,3-dihydroxycyclohexyl)oxy)-2-((R)-1,2-dihydroxyethyl)tetrahydro-2H-pyran-3,4-diol]",in vitro stop codon suppression (readthrough) activity compared with Compound 1,[5],dramatically increases its in vitro readthrough activity
same,MIC,[1]; [9],311 µM
same,MIC,[4],> 311 µM
"N[C@H]1[C@@H](O[C@H]2[C@H](O)[C@@H](O)[C@H](N)C[C@@H]2N)OC(CO)=C[C@@H]1O [NB154, (1S,2R,3R,4S,6R)-4,6-diamino-3-(((2S,3R,4S)-3-amino-4-hydroxy-6-(hydroxymethyl)-3,4-dihydro-2H-pyran-2-yl)oxy)cyclohexane-1,2-diol]",prokaryotic ribosome/protein synthesis inhibition and subsequent antibacterial activity compared with structurally related compound,[6],"significantly lower than that of the corresponding paromamine, NB30, and NB118"
same,in-vitro PTC suppression activity compared with structurally related compound,[7],more or less similar activity as that of NB82
same,"readthrough activity, fold higher than paromamine",[7]; preliminary comparative in-vitro PTC suppression assays,~3.5 fold
same,MIC,[1]; [10],> 384 µg/mL
same,MIC,[4],> 384 µg/mL
"N[C@H]1[C@@H](O[C@H]2[C@H](O)[C@@H](O)[C@H](N)C[C@@H]2N)O[C@H]([C@@H](O)CO)[C@@H](O)[C@@H]1O [NB155, (2R, 3S, 4R, 5R, 6S)-5-amino-6-(((1R, 2R, 3S, 4R, 6S)-4,6-diamino-2,3-dihydroxycyclohexyl)oxy)-2-((S)-1,2-dihydroxyethyl)tetrahydro-2H-pyran-3,4-diol]",in vitro stop codon suppression (readthrough) activity compared with Compound 1,[5],somewhat higher activity of NB155 to that of Compound 1
same,MIC,[1]; [9],> 375 µM
same,MIC,[4],> 375 µM
"C[C@H](N)[C@H]1O[C@@H](O[C@@H]2[C@@H](O)[C@H](N)C[C@H](N)[C@H]2O[C@H]2O[C@H]([C@H](O)CO)[C@@H](O)[C@H](O)[C@H]2N)[C@@H](O)[C@H]1O [NB157, (2R, 3S, 4R, 5R, 6S)-5-amino-6-(((1R, 2R, 3S, 4R, 6S)-4,6-diamino-2-(((2S, 3S, 4R, 5R)-5-((S)-1-aminoethyl)-3,4-dihydroxytetrahydrofuran-2-yl)oxy)-3-hydroxycyclohexyl)oxy)-2-((R)-1,2-dihydroxyethyl)tetrahydro-2H-pyran-3,4-diol]",fold more specific to the eukaryotic ribosome than structurally related compound,[8],1.25 fold
same,prokaryotic ribosome/protein synthesis inhibition and subsequent antibacterial activity compared with structurally related compound,[6],very similar to those of their structurally related Compounds NB74 and NB124
same,readthrough activity compared with gentamicin,[5]; [11],significantly better than that of the clinical drug gentamicin
same,readthrough activity compared with structurally related compound,[5]; [11],better than its structurally related NB124
same,MIC,[1]; [9],64 µM
same,MIC,[4],> 257 µM
NC[C@H]1O[C@@H](O[C@@H]2C(O)[C@H](N)CC(N)[C@H]2O[C@H]2OC(CO)=CC(O)[C@@H]2N)C(O)[C@H]1O (stereo partly drawn) [NB158],prokaryotic ribosome/protein synthesis inhibition and subsequent antibacterial activity compared with structurally related compound,[6],"significantly lower than that of the corresponding paromamine, NB30, and NB118"
same,MIC,[1]; [10],192 µg/mL
C[C@H](N)[C@H]1O[C@@H](O[C@@H]2C(O)[C@H](N)CC(N)[C@H]2O[C@H]2OC(CO)=CC(O)[C@@H]2N)C(O)[C@H]1O (stereo partly drawn) [NB159],prokaryotic ribosome/protein synthesis inhibition and subsequent antibacterial activity compared with structurally related compound,[6],"significantly lower than that of the corresponding paromamine, NB30, and NB118"
same,MIC,[1]; [10],192 µg/mL
gentamicin [reference compound],MIC,"[1]; Table 4, read-out: Antibacterial Activity MIC B. Subtilis ATCC6633",<0.75 µM
same,Antibacterial Activity MIC E. Coli R 477/100,[4]; Table 4,6 µM
